Test results reported in patent US10189836B2, “Therapeutic compounds, compositions and methods of use thereof” (Genentech, Inc., priority 2015, dated 2019).

Legend:
[1] = target: isolated recombinant JAK2 kinase domain (Homo sapiens (Human), UniProt O60674); test: JAK2 enzyme assay (Caliper LabChip, Ki); format: biochemical; settings: isolated recombinant JAK2 kinase domain, 0.2 nM enzyme, ATP 25 μM
[2] = target: isolated recombinant JAK1 kinase domain (Homo sapiens (Human), UniProt P23458); test: JAK1 enzyme assay (Caliper LabChip, Ki); format: biochemical; settings: isolated recombinant JAK1 kinase domain, 1.5 nM enzyme, ATP 25 μM
Chain of isolated recombinant JAK1 kinase domain (P23458 875-1153): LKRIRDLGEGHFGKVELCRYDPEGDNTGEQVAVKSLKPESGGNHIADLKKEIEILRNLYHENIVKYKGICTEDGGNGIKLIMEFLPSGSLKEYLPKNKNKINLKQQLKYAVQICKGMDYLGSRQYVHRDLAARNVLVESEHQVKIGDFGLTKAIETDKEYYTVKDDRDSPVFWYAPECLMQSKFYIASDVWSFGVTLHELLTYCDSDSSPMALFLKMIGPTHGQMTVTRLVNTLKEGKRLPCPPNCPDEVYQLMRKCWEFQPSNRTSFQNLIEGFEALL

Chain of isolated recombinant JAK2 kinase domain (O60674 849-1124): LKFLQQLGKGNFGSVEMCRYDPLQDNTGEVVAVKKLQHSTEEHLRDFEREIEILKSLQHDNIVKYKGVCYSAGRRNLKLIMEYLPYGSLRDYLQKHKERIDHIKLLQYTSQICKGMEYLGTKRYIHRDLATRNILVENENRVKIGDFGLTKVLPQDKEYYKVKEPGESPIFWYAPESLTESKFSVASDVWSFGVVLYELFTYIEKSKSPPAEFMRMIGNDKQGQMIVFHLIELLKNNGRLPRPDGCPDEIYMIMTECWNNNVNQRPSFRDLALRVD

SMILES	Ki [1]	Ki [2]
CN1CCN(C(=O)Cn2cc(Nc3nc4c(N5CC6CCCC(C5)N6C(=O)[C@H]5C[C@@H](C(F)(F)F)C5)cccn4n3)cn2)CC1 [Example 65, 1-(4-methylpiperazin-1-yl)-2-[4-[[8-[9-[3-(trifluoromethyl)cyclobutanecarbonyl]-3,9-diazabicyclo[3.3.1]nonan-3-yl]-[1,2,4]triazolo[1,5-a]pyridin-2-yl]amino]pyrazol-1-yl]ethanone]	0.8 nM	0.6 nM
CN1CCN(C(=O)Cn2cc(Nc3nc4c(N5C[C@H]6CC[C@@H](C5)[C@H]6OCc5ccccc5)cccn4n3)cn2)CC1 [Example 1, 2-[4-[[8-[(1S,5R)-8-benzyloxy-3-azabicyclo[3.2.1]octan-3-yl]-[1,2,4]triazolo[1,5-a]pyridin-2-yl]amino]pyrazol-1-yl]-1-(4-methylpiperazin-1-yl)ethanone]	0.6 nM	0.2 nM
CN1CCN(C(=O)Cn2cc(Nc3nc4c(N5CC6CCC(C5)N6Cc5ccccc5)cccn4n3)cn2)CC1 [Example 86, 2-[4-[[8-(8-benzyl-3,8-diazabicyclo[3.2.1]octan-3-yl)-[1,2,4]triazolo[1,5-a]alpyridin-2-yl]amino]pyrazol-1-yl]-1-(4-methylpiperazin-1-yl)ethanone]	105 nM	19.2 nM
CN(C)C(=O)CN1CCN(CC2CCN(C(=O)Cn3cc(Nc4nc5c(N6CC7CCC(C6)N7C(=O)N6CC(C(F)(F)F)C6)cccn5n4)cn3)CC2)CC1 [Example 81, N,N-dimethyl-2-[4-[[1-[2-[4-[[8-[8-[3-(trifluoromethyl)azetidine-1-carbonyl]-3,8-diazabicyclo[3.2.1]octan-3-yl]-[1,2,4]triazolo[1,5-a]pyridin-2-yl]amino]pyrazol-1-yl]acetyl]-4-piperidyl]methyl]piperazin-1-yl]acetamide]	0.8 nM	1 nM
O=C(Cn1cc(Nc2nc3c(N4CC5CCC(C4)N5C(=O)N4CC(C(F)(F)F)C4)cccn3n2)cn1)N1CCN(C2COC2)CC1 [Example 194, 1-[4-(oxetan-3-yl)piperazin-1-yl]-2-[4-[[8-[8-[3-(trifluoromethyl)azetidine-1-carbonyl]-3,8-diazabicyclo[3.2.1]octan-3-yl]-[1,2,4]triazolo[1,5-a]pyridin-2-yl]amino]pyrazol-1-yl]ethanone]	0.4 nM	0.9 nM
N#CC1(CNC2CCN(C(=O)Cn3cc(Nc4nc5c(N6CC7CCC(C6)N7C(=O)C6CC(C(F)(F)F)C6)cccn5n4)cn3)CC2)CC1 (stereo not drawn) [Example 191, 1-[[[1-[2-[4-[[8-[8-[3-(trifluoromethyl)cyclo-butanecarbonyl]-3,8-diazabicyclo[3.2.1]octan-3-yl]-[1,2,4]triazolo[1,5-a]pyridin-2-yl]amino]pyrazol-1-yl]acetyl]-4-piperidyl]amino]methyl]-cyclopropanecarbonitrile]	7.8 nM	3.5 nM
CN1CCN(C(=O)Cn2cc(Nc3nc4c(N5CC6CCC(C5)N6S(=O)(=O)Cc5ccc(C(F)(F)F)cc5)cccn4n3)cn2)CC1 [Example 184, 1-(4-methylpiperazin-1-yl)-2-[4-[[8-[8-([4-(trifluoromethyl)phenyl]methylsulfonyl]-3,8-diazabicyclo[3.2.1]octan-3-yl]-[1,2,4]triazolo[1,5-a]pyridin-2-yl]amino]pyrazol-1-yl]ethanone]	2.3 nM	1 nM
CN1CCN(C(=O)Cn2cc(Nc3nc4c(N5CC6CCC(C5)N6S(=O)(=O)c5cccnc5)cccn4n3)cn2)CC1 [Example 175, 1-(4-methylpiperazin-1-yl)-2-[4-[[8-[8-(3-pyridylsulfonyl)-3,8-diazabicyclo[3.2.1]octan-3-yl]-[1,2,4]triazolo[1,5-a]pyridin-2-yl]amino]pyrazol-1-yl]ethanone]	0.9 nM	0.6 nM
CN1CCN(C(=O)Cn2cc(Nc3nc4c(N5CC6CCC(C5)N6C(=O)CC5CSCCS5)cccn4n3)cn2)CC1 (stereo not drawn) [Example 9, 2-(1,4-dithian-2-yl)-1-[3-[2-[[1-[2-(4-methylpiperazin-1-yl)-2-oxo-ethyl]pyrazol-4-yl]amino]-[1,2,4]triazolo[1,5-a]pyridin-8-yl]-3,8-diazabicyclo[3.2.1]octan-8-yl]ethanone]	0.9 nM	0.6 nM
CN1CCN(C(=O)Cn2cc(Nc3nc4c(N5CC6CCC(C5)N6CC(F)(F)F)cccn4n3)cn2)CC1 [Example 98, 1-(4-methylpiperazin-1-yl)-2-[4-[[8-[8-(2,2,2-trifluoroethyl)-3,8-diazabicyclo[3.2.1]octan-3-yl]-[1,2,4]triazolo[1,5-a]pyridin-2-yl]amino]pyrazol-1-yl]ethanone]	4.1 nM	2.1 nM
CC(C(=O)N1CCN(C)CC1)n1cc(Nc2nc3c(N4CC5CCCC(C4)N5C(=O)CCC(F)(F)F)cccn3n2)cn1 (stereo not drawn) [Example 105, 4,4,4-trifluoro-1-[3-[2-[[1-[1-methyl-2-(4-methylpiperazin-1-yl)-2-oxo-ethyl]pyrazol-4-yl]amino]-[1,2,4]triazolo[1,5-a]pyridin-8-yl]-3,9-diazabicyclo[3.3.1]nonan-9-yl]butan-1-one]	0.8 nM	1 nM
CC(CC(F)(F)F)C(=O)N1C2CCC1CN(c1cccn3nc(Nc4cnn(CC(=O)N5CCN(C)CC5)c4)nc13)C2 (stereo not drawn) [Example 47, 4,4,4-trifluoro-2-methyl-1-[3-[2-[[1-[2-(4-methylpiperazin-1-yl)-2-oxo-ethyl]pyrazol-4-yl]amino]-[1,2,4]triazolo[1,5-a]pyridin-8-yl]-3,8-diazabicyclo[3.2.1]octan-8-yl]butan-1-one]	2 nM	1.8 nM
CN1CCN(C(=O)Cn2cc(Nc3nc4c(N5CC6CCC(C5)N6S(=O)(=O)c5cccs5)cccn4n3)cn2)CC1 [Example 112, 1-(4-methylpiperazin-1-yl)-2-[4-[[8-[8-(2-thienylsulfonyl)-3,8-diazabicyclo[3.2.1]octan-3-yl]-[1,2,4]triazolo[1,5-a]pyridin-2-yl]amino]pyrazol-1-yl]ethanone]	0.7 nM	0.5 nM
CN1CCN(C(=O)Cn2cc(Nc3nc4c(N5CC6CCC(C5)N6C(=O)c5ccccc5C#N)cccn4n3)cn2)CC1 [Example 140, 2-[3-[2-[[1-[2-(4-methylpiperazin-1-yl)-2-oxo-ethyl]pyrazol-4-yl]amino]-[1,2,4]triazolo[1,5-a]pyridin-8-yl]-3,8-diazabicyclo[3.2.1]octane-8-carbonyl]benzonitrile]	0.8 nM	0.4 nM
CN1CCN(C(=O)Cn2cc(Nc3nc4c(N5CC6CCC(C5)N6C(=O)c5ccns5)cccn4n3)cn2)CC1 [Example 87, 2-[4-[[8-[8-(isothiazole-5-carbonyl)-3,8-diazabicyclo[3.2.1]octan-3-yl]-[1,2,4]triazolo[1,5-a]pyridin-2-yl]amino]pyrazol-1-yl]-1-(4-methylpiperazin-1-yl)ethanone]	0.9 nM	0.6 nM
CN1CCN(C(=O)Cn2cc(Nc3nc4c(N5C[C@H]6CC[C@@H](C5)[C@H]6OCc5cccc(CO)c5)cccn4n3)cn2)CC1 [Example 195, 1-(4-methylpiperazin-1-yl)-2-[4-[[8-[rac-(1S,5R)-8-[[3-(hydroxymethyl)phenyl]methoxy]-3-azabicyclo[3.2.1]octan-3-yl]-[1,2,4]triazolo[1,5-a]pyridin-2-yl]amino]pyrazol-1-yl]ethanone]	0.7 nM	0.4 nM
CN1CCN(C(=O)Cn2cc(Nc3nc4c(N5CC6CCC(C5)N6Cc5ccccc5F)cccn4n3)cn2)CC1 [Example 137, 2-(4-((8-((1R,5 S)-8-(2-fluorobenzyl)-3,8-diazabicyclo[3.2.1]octan-3-yl)-[1,2,4]triazolo[1,5-a]pyridin-2-yl)amino)-1H-pyrazol-1l-yl)-1-(4-methylpiperazin-1-yl)ethan-1-one]	0.7 nM	1 nM
CN1CCN(C(=O)Cn2cc(Nc3nc4c(N5CC6CCC(C5)N6C(=O)CC(C)(C)C(F)(F)F)cccn4n3)cn2)CC1 [Example 77, 4,4,4-trifluoro-3,3-dimethyl-1-[3-[2-[[1-[2-(4-methylpiperazin-1-yl)-2-oxo-ethyl]pyrazol-4-yl]amino]-[1,2,4]triazolo[1,5-a]pyridin-8-yl]-3,8-diazabicyclo[3.2.1]octan-8-yl]butan-1-one]	2.3 nM	1.7 nM
CC(C(=O)N1CCN(C)CC1)n1cc(Nc2nc3c(N4CC5CCC(C4)N5C(=O)C4CC(C(F)(F)F)C4)cccn3n2)cn1 (stereo not drawn) [Example 125, 1-(4-methylpiperazin-1-yl)-2-[4-[[8-[8-(3-(trifluoromethyl)-cyclobutanecarbonyl]-3,8-diazabicyclo[3.2.1]octan-3-yl]-[1,2,4]triazolo[1,5-a]pyridin-2-yl]amino]pyrazol-1-yl]propan-1-one]	0.4 nM	0.6 nM
COC1(C(F)(F)F)CN(C(=O)N2C3CCC2CN(c2cccn4nc(Nc5cnn(CC(=O)N6CCN(C)CC6)c5)nc24)C3)C1 [Example 146, 2-[4-[[8-[8-[3-methoxy-3-(trifluoromethyl)azetidine-1-carbonyl]-3,8-diazabicyclo[3.2.1]octan-3-yl]-[1,2,4]triazolo[1,5-a]pyridin-2-yl]amino]pyrazol-1-yl]-1-(4-methylpiperazin-1-yl)ethanone]	6.1 nM	6.1 nM
CN1CCN(C(=O)Cn2cc(Nc3nc4c(N5CC6CCC(C5)N6C(=O)C5(C#N)CCCC5)cccn4n3)cn2)CC1 [Example 155, 1-[3-[2-[[1-[2-(4-methylpiperazin-1-yl)-2-oxo-ethyl]pyrazol-4-yl]amino]-[1,2,4]triazolo[1,5-a]pyridin-8-yl]-3,8-diazabicyclo[3.2.1]octane-8-carbonyl]cyclopentane-carbonitrile]	21 nM	–
CN1CCN(C(=O)Cn2cc(Nc3nc4c(N5CC6COCC(C5)N6C(=O)CCC(F)(F)F)cccn4n3)cn2)CC1 [Example 130, 4,4,4-trifluoro-1-[7-[2-[[1-[2-(4-methylpiperazin-1-yl)-2-oxo-ethyl]pyrazol-4-yl]amino]-[1,2,4]triazolo[1,5-a]pyridin-8-yl]-3-oxa-7,9-diazabicyclo[3.3.1]nonan-9-yl]butan-1-one]	26.6 nM	–
